According to patent US20080319038A1, “PREVENTATIVE OR THERAPEUTIC AGENT FOR ACUTE RENAL FAILURE” (priority 2005, published 2008):

Experiments:
[1] = tested on: ischemia reperfusion mice; assay: Effect of Fidarestat administration on renal damage in ischemia reperfusion mice; assay type: in vivo, C57BL/6 mice; details: for BUN / CK / Creatinine: blood, 3 h ischemia, 24 h reperfusion, Average ± SEM, n = 4
Description: Sixteen- to twenty-week-old male C57BL/6 mice (Wild) were used in the experiment. The mice were divided into 4 groups, which were designated as sham-operation group (normal control group), ischemia operation group (ischemia reperfusion control group), ischemia operation+Fidarestat 40 mg/kg administration group (ischemia reperfusion/Fidarestat 40 mg/kg administration group), and ischemia operation+Fidarestat 150 mg/kg administration group (ischemia reperfusion/Fidarestat 150 mg/kg administration group), respectively. 40 or 150 mg/kg/day of Fidarestat was mixed in their diet and administered to the ischemia operation+Fidarestat administration groups 7 days before ischemia operation. Plantar blood flow in these mice was measured with a laser blood flow meter under isoflurane anesthesia, and then the abdomen was incised. The abdominal aorta was exposed under a stereoscopic microscope and clipping was carried out at the portion distal to the renal artery bifurcation. Further, the right common iliac artery was also clipped and the right femoral artery was finally clipped. Thereafter, the abdomen was closed. The time of ischemia onset was set to the time when the femoral artery was clipped. From the time of ischemia onset, plantar blood flow was measured with a laser blood flow meter and the ischemia was confirmed. The clipping was released in order of the right femoral artery, right common iliac artery, and abdominal aorta in 3 hours from the ischemia onset and reperfusion was performed. At the time, the reperfusion status was confirmed with the laser blood flow meter. The reperfusion time was set to the time when the clipping of the aorta was released. The reperfusion was performed for 24 hours and the general condition was observed. Thereafter, heart blood was collected from the right atrium under isoflurane anesthesia. The collected heart blood was mixed with heparin and centrifuged at 3000 g. Then, the supernatant was collected therefrom, which was frozen for preservation at −80 degrees C. to use in a serologic test for CK, BUN, creatinine, and the like.

[2] = tested on: mice with LPS-induced inflammation; assay: Effect of Fidarestat administration on renal damage in mice with lipopolysaccharide (LPS)-induced inflammation; assay type: in vivo, CD-1 mice
Description: Eight-week-old male CD-1 mice were used in the experiment. The mice were divided into 3 groups of normal control group (drug and LPS non-administration group), LPS control group (drug non-administration/LPS administration group), and LPS/Fidarestat administration group (Fidarestat and LPS administration group). First, 10 mg/kg of Fidarestat (which was prepared with a solubilizing agent solution) was administered into the caudal vein of the Fidarestat administration group and the solubilizing agent solution was administered into the caudal vein of the drug non-administration group. After 5 minutes, Lipopolysaccharides (LPS: Escherichia coli; 0111: B4, Sigma) was prepared with a physiological salt solution, which was administered to the LPS administration group intraperitoneally at a concentration of 2 mg/kg and a physiological salt solution was administered to the LPS non-administration group intraperitoneally. After 24 hours, each of the groups of mice was anesthetized by ether inhalation and blood was collected from the abdominal vein using a heparinized syringe. Then, centrifugation was carried out under the following conditions: at 4 degree C., at 1,000×g, for 10 min. Plasma was then obtained. Blood urea nitrogen (BUN) and creatinine were measured using an autoanalyzer (Hitachi). In this regard, as a solubilizing agent, NMDG (N-methyl-D-glucamine) was used.

[3] = Fidarestat 40 mg/kg/day in diet from 7 days before ischemia
[4] = Fidarestat 150 mg/kg/day in diet from 7 days before ischemia
[5] = plasma, Fidarestat 10 mg/kg caudal vein 5 min before LPS 2 mg/kg i.p., 24 hours after LPS, Average ± SEM, n = 7

Question: Which results are given for `NC(=O)[C@@H]1C[C@]2(NC(=O)NC2=O)c2cc(F)ccc2O1` [Fidarestat, (2S,4S)-6-fluoro-2′,5′-dioxospiro[chroman-4,4′-imidazolidine]-2-carboxamide]?
Answer: BUN [1, 3]: 40 ± 11 mg/dL; CK [1, 3]: 6978 ± 4904 IU/L; Creatinine [1, 3]: 0.12 ± 0.01 mg/dL; BUN [1, 4]: 31 ± 1 mg/dL; CK [1, 4]: 2348 ± 530 IU/L; Creatinine [1, 4]: 0.10 ± 0.01 mg/dL; onset of acute renal failure ([1]; ischemia reperfusion/Fidarestat 40 mg/kg and 150 mg/kg administration groups): completely suppressed; effect on renal function impairment ([2]; model with LPS-induced inflammation, Fidarestat 10 mg/kg i.v.): effective; BUN [2, 5]: 24.3 ± 2.2 mg/dL; Creatinine [2, 5]: 0.067 ± 0.003 mg/dL
